Laboratory results from US10639373B2, “Pyrrolobenzodiazepine antibody drug conjugates and methods of use” (priority 2015, dated 2020).

Key:
[1] = Exploratory single dose free drug toxicology study in rats; format: in vivo, rat; settings: for reticulocytes: all doses, 72 hours post-dose; for reticulocyte recovery: by 168 hours post-dose; for MTD at 7 day: rat, in vivo
Procedure: An exploratory single dose toxicology study was conducted in rats comparing the C-1 (PBD bis alkylator) and DM-2 (PBD monoalkylator) free drugs. Animals received a single IV dose of C-1, DM-2, or vehicle and were monitored for a 7-day recovery period.
Toxicity was assessed by clinical observations and clinical pathology (hematology and clinical chemistry at 72 and 168 hours post-dose). In general, results were similar for DM-2 at ten times the dose level of C-1.

[2] = tested on: duplex oligonucleotides Pu-GAAATC-Py and Pu-GAAATG-Py; experiment: Oligonucleotide binding/alkylation assay
[3] = 100 μM compound, 50 μM DNA, 1 hour, 37° C.

With `C=C1C[C@H]2C=Nc3cc(OCCCCCOc4cc5c(cc4OC)C(=O)N4CC(=C)C[C@H]4C=N5)c(OC)cc3C(=O)N2C1` [C-1, (11aS,11a′S)-8,8′-(pentane-1,5-diylbis(oxy))bis(7-methoxy-2-methylene-1,2,3,11a-tetrahydro-5H-benzo[e]pyrrolo[1,2-a][1,4]diazepin-5-one), reference compound] the clinical pathology ([1]; 0.2 mg/kg) was “clinical pathology changes indicative of liver and kidney toxicity”, the tolerability ([1]; 0.05 and 0.1 mg/kg, single IV dose) was “well tolerated with no clinical signs” and the reticulocytes [1] was “dose-dependent decrease in reticulocytes”. For the same compound, the reticulocyte recovery [1] was “recovering in the 0.05 and 0.1 mg/kg groups”, the MTD at 7 day ([1]; single IV dose) was 0.1 mg/kg and the main target organs ([1]; single IV dose) was “bone marrow, kidney, and liver”. The “toxic potency relative to DM-2” value ([1]; single IV dose) was “approximately ten times as potent as DM-2” and the “more efficiency to covalently alkylate the duplex oligonucleotides than monoamine DM-1” value [2, 3] was 2-3 times.
For `C=C1C[C@H]2C=Nc3cc(OC)c(OC)cc3C(=O)N2C1` [C-2, (S)-7,8-dimethoxy-2-methylene-1,2,3,11a-tetrahydro-5H-benzo[e]pyrrolo[1,2-a][1,4]diazepin-5-one], the “less efficiency in covalently alkylating the duplex oligonucleotides than dimer C-1” value [2, 3] was greater than 50 times.
In the case of `C=C1C[C@H]2CNc3cc(OCCCCCOc4cc5c(cc4OC)C(=O)N4CC(=C)C[C@H]4CN5)c(OC)cc3C(=O)N2C1` [C-3, (11aS,11a′S)-8,8′-(pentane-1,5-diylbis(oxy))bis(7-methoxy-2-methylene-1,2,3,10,11,11a-hexahydro-5H-benzo[e]pyrrolo[1,2-a][1,4]diazepin-5-one)], the DNA binding ([2]; imine bonds of C-1 reduced) was “completely eliminates DNA binding”.
In the case of `C=C1C[C@H]2C=Nc3cc(OCCCCCOc4cc5c(cc4OC)C(=O)N4CC(=C)C[C@H]4C(=O)N5)c(OC)cc3C(=O)N2C1` [DM-2, (S)-7-methoxy-8-((5-(((S)-7-methoxy-2-methylene-5-oxo-2,3,5,11a-tetrahydro-1H-benzo[e]pyrrolo[1,2-a] [1,4]diazepin-8-yl)oxy)pentyl)oxy)-2-methylene-2,3-dihydro-1H-benzo[e]pyrrolo[1,2-a] [1,4]diazepine-5,11(10H,11aH)-dione], the clinical pathology ([1]; 2 mg/kg) was “clinical pathology changes indicative of liver and kidney toxicity”, the outcome ([1]; 2 mg/kg) was “euthanized in moribund condition on Day 4” and the body weight loss ([1]; 2 mg/kg, Day 2 to 4) was “approximately 14%”. For the same compound, the tolerability ([1]; 0.5 and 1 mg/kg, single IV dose) was “well tolerated”, the reticulocytes [1] was “dose-dependent decrease in reticulocytes” and the reticulocyte recovery [1] was “recovered in the 0.5 and 1 mg/kg groups”. The MTD at 7 day ([1]; single IV dose) was 1 mg/kg and the main target organs ([1]; single IV dose) was “bone marrow, kidney, and liver”.
